# Measured values published in US20120083476A1, “HETEROARYL-SUBSTITUTED SPIROCYCLIC DIAMINE UREA MODULATORS OF FATTY ACID AMIDE HYDROLASE” (Janssen Pharmaceutica NV, priority 2009, published 2012).
# Counter-ions that a name gives are not always drawn. Like-named read-outs stand apart in the source and are kept apart here.
# How the values were obtained:
# Rat FAAH = biological target: T1, Rat FAAH (Rattus norvegicus, UniProt P97612); assay: Assay Method 2: rat FAAH assay (3H-anandamide hydrolysis in cell homogenate); type: biochemical
# T1 construct: expressed in transfected cells; host or cells: SK-N-MC cells stably transfected with rat FAAH cDNA (G418 selection)
# T1 sequence (P97612 1-579): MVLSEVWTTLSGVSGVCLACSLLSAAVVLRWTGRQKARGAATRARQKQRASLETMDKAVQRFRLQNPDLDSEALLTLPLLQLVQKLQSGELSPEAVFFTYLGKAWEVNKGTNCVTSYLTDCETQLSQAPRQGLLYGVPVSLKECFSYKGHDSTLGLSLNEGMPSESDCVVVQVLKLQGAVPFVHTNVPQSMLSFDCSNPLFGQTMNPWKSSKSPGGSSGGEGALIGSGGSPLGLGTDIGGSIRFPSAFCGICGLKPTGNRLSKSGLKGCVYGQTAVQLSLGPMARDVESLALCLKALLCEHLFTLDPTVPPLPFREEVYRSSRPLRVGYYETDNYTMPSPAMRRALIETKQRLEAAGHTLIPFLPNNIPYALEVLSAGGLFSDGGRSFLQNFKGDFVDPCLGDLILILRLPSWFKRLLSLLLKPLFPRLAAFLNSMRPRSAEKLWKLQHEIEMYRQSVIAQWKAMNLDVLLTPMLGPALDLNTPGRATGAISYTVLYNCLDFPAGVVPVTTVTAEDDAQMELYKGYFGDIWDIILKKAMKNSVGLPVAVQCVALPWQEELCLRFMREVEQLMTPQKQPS
# How it was run: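 Homogenates of T84 cells or SK-N-MC cells stably transfected with rat FAAH, in pH 9 Tris/EDTA/glycerol/Triton buffer, incubated 1 h at room temperature with 3H-anandamide. Released labeled ethanolamine separated from substrate on activated charcoal and counted by scintillation; values averaged over runs.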
# FAAH = biological target: T2, FAAH (Homo sapiens, UniProt O00519); assay: Assay Method 1: human FAAH assay (3H-anandamide hydrolysis in cell homogenate); type: biochemical; set-up: expressed in transfected cells; host or cells: SK-N-MC cells stably transfected with human FAAH cDNA (G418 selection); alternatively T84 cell pellets
# T2 sequence (O00519 1-579): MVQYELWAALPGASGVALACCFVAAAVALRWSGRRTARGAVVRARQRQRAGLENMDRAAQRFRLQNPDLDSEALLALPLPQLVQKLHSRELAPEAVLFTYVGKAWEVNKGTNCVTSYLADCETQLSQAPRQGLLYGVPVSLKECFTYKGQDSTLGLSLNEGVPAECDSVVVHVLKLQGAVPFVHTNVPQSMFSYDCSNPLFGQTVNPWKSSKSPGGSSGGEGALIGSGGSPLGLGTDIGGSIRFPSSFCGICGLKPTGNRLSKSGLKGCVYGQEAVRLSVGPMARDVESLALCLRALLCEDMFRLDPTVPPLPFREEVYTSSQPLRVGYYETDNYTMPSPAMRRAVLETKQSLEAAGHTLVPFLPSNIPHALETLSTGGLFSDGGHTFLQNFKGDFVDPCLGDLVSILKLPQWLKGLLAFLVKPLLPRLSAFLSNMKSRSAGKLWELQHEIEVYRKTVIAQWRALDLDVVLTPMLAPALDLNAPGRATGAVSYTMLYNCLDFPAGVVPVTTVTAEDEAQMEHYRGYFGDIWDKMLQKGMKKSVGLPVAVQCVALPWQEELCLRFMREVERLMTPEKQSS
# How it was run: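 Homogenates of T84 cells or SK-N-MC cells stably transfected with human FAAH, in pH 9 Tris/EDTA buffer with 0.02% Triton X-100. Incubated 1 h at rt with compound and 80 nM (final) [3H-ethanolamine]-anandamide. Released 3H-ethanolamine separated on charcoal filters and counted by scintillation.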
SMILES,IC50 (Rat FAAH; read-out: Assay 2 IC50) [nM],IC50 (FAAH; read-out: Assay 1 IC50) [nM],IC50 (FAAH) [nM],IC50 (Rat FAAH) [nM]
"O=C(Nc1noc2cccnc12)N1CC2(CCN(Cc3cccc(Oc4ccc(Cl)cc4)c3)CC2)C1 [Example 67, 7-[3-(4-Chloro-phenoxy)-benzyl]-2,7-diaza-spiro[3.5]nonane-2-carboxylic acid isoxazolo[4,5-b]pyridin-3-ylamide, trifluoroacetic acid salt]",10,160,–,–
"O=C(Nc1ccc2nccn2c1)N1CC2(CCN(Cc3cccc(Oc4ccc(Cl)cc4)c3)CC2)C1 [Example 69, 7-[3-(4-Chloro-phenoxy)-benzyl]-2,7-diaza-spiro[3.5]nonane-2-carboxylic acid imidazo[1,2-a]pyridin-6-ylamide, trifluoroacetic acid salt]",> 10000,> 10000,–,–
"COc1ccc(NC(=O)N2CC3(CCN(Cc4cccc(Oc5ccc(Cl)cc5)c4)CC3)C2)nn1 [Example 70, 7-[3-(4-Chloro-phenoxy)-benzyl]-2,7-diaza-spiro[3.5]nonane-2-carboxylic acid (6-methoxy-pyridazin-3-yl)-amide, trifluoroacetic acid salt]",2400,3000,–,–
"O=C(Nc1ccnc(C(F)(F)F)n1)N1CC2(CCN(Cc3cccc(Oc4ccc(Cl)cc4)c3)CC2)C1 [Example 71, 7-[3-(4-Chloro-phenoxy)-benzyl]-2,7-diaza-spiro[3.5]nonane-2-carboxylic acid (2-trifluoromethyl-pyrimidin-4-yl)-amide, trifluoroacetic acid salt]",5000,> 10000,–,–
"Cc1nn(C)c2ncc(NC(=O)N3CC4(CCN(Cc5cccc(Oc6ccc(Cl)cc6)c5)CC4)C3)cc12 [Example 75, 7-(3-(4-chlorophenoxy)benzyl)-N-(1,3-dimethyl-1H-pyrazolo[3,4-b]pyridin-5-yl)-2,7-diazaspiro[3.5]nonane-2-carboxamide, trifluoroacetic acid salt]",400,2500,–,–
"Cc1cc(NC(=O)N2CC3(CCN(Cc4cccc(Oc5ccc(Cl)cc5)c4)CC3)C2)no1 [Example 76, 7-(3-(4-chlorophenoxy)benzyl)-N-(5-methylisoxazol-3-yl)-2,7-diazaspiro[3.5]nonane-2-carboxamide, trifluoroacetic acid salt]",> 10000,> 10000,–,–
"Cc1cncc(NC(=O)N2CC3(CCN(Cc4cccc(Oc5ccc(Cl)cc5)c4)CC3)C2)c1 [Example 79, 7-(3-(4-chlorophenoxy)benzyl)-N-(5-methylpyridin-3-yl)-2,7-diazaspiro[3.5]nonane-2-carboxamide, trifluoroacetic acid salt]",30,70,–,–
"O=C(Nc1cccnc1F)N1CC2(CCN(Cc3cccc(Oc4ccc(Cl)cc4)c3)CC2)C1 [Example 80, 7-(3-(4-chlorophenoxy)benzyl)-N-(2-fluoropyridin-3-yl)-2,7-diazaspiro[3.5]nonane-2-carboxamide, trifluoroacetic acid salt]",570,140,–,–
"O=C(Nc1cncc(Br)c1)N1CC2(CCN(Cc3cccc(Oc4ccc(Cl)cc4)c3)CC2)C1 [Example 82, N-(5-bromopyridin-3-yl)-7-(3-(4-chlorophenoxy)benzyl)-2,7-diazaspiro[3.5]nonane-2-carboxamide, trifluoroacetic acid salt]",20,280,–,–
"N#Cc1ccncc1NC(=O)N1CC2(CCN(Cc3cccc(Oc4ccc(Cl)cc4)c3)CC2)C1 [Example 84, 7-(3-(4-chlorophenoxy)benzyl)-N-(4-cyanopyridin-3-yl)-2,7-diazaspiro[3.5]nonane-2-carboxamide]",10,110,–,–
"Cc1ccncc1NC(=O)N1CC2(CCN(Cc3cccc(Oc4ccc(Cl)cc4)c3)CC2)C1 [Example 85, 7-(3-(4-chlorophenoxy)benzyl)-N-(4-methylpyridin-3-yl)-2,7-diazaspiro[3.5]nonane-2-carboxamide]",40,–,80,–
"O=C(Nc1cnccc1C(F)(F)F)N1CC2(CCN(Cc3cccc(Oc4ccc(Cl)cc4)c3)CC2)C1 [Example 86, 7-(3-(4-chlorophenoxy)benzyl)-N-(4-(trifluoromethyl)pyridin-3-yl)-2,7-diazaspiro[3.5]nonane-2-carboxamide]",40,420,–,–
"O=C(Nc1ccc(-n2nccn2)nc1)N1CC2(CCN(Cc3ccc4c(c3)OC(F)(F)O4)CC2)C1 [Example 88, 7-(2,2-Difluoro-benzo[1,3]dioxol-5-ylmethyl)-2,7-diaza-spiro[3.5]nonane-2-carboxylic acid (6-[1,2,3]triazol-2-yl-pyridin-3-yl)-amide]",> 10000,4000,–,–
"O=C(Nc1cccnc1)N1CCC2(CCN(Cc3cccc(Oc4ccc(Cl)cc4)c3)CC2)C1 [Example 90, 8-[3-(4-Chloro-phenoxy)-benzyl]-2,8-diaza-spiro[4.5]decane-2-carboxylic acid pyridin-3-ylamide, trifluoroacetic acid salt]",–,–,2000,430

# The next lines start with results.
IC50 (Rat FAAH; read-out: Assay 2 IC50) [nM],IC50 (FAAH; read-out: Assay 1 IC50) [nM],SMILES,IC50 (FAAH) [nM],IC50 (Rat FAAH) [nM]
> 10000,> 10000,"O=C(Nc1cccc2cn[nH]c12)N1CC2(CCN(Cc3cccc(Oc4ccc(Cl)cc4)c3)CC2)C1 [Example 68, 7-[3-(4-Chloro-phenoxy)-benzyl]-2,7-diaza-spiro[3.5]nonane-2-carboxylic acid (1H-indazol-7-yl)-amide, trifluoroacetic acid salt]",–,–
60,1700,"COc1nccc(NC(=O)N2CC3(CCN(Cc4cccc(Oc5ccc(Cl)cc5)c4)CC3)C2)n1 [Example 72, 7-[3-(4-Chloro-phenoxy)-benzyl]-2,7-diaza-spiro[3.5]nonane-2-carboxylic acid (2-methoxy-pyrimidin-4-yl)-amide, trifluoroacetic acid salt]",–,–
450,80,"O=C(Nc1cncc(F)c1)N1CC2(CCN(Cc3cccc(Oc4ccc(Cl)cc4)c3)CC2)C1 [Example 73, 7-[3-(4-Chloro-phenoxy)-benzyl]-2,7-diaza-spiro[3.5]nonane-2-carboxylic acid (5-fluoro-pyridin-3-yl)-amide, trifluoroacetic acid salt]",–,–
2000,> 10000,"O=C(Nc1ccnc2[nH]ccc12)N1CC2(CCN(Cc3cccc(Oc4ccc(Cl)cc4)c3)CC2)C1 [Example 74, 7-[3-(4-Chloro-phenoxy)-benzyl]-2,7-diaza-spiro[3.5]nonane-2-carboxylic acid (1H-pyrrolo[2,3-b]pyridin-4-yl)-amide, trifluoroacetic acid salt]",–,–
> 10000,> 10000,"Cc1nc2ccc(NC(=O)N3CC4(CCN(Cc5cccc(Oc6ccc(Cl)cc6)c5)CC4)C3)cc2s1 [Example 77, 7-(3-(4-chlorophenoxy)benzyl)-N-(2-methylbenzo[d]thiazol-6-yl)-2,7-diazaspiro[3.5]nonane-2-carboxamide, trifluoroacetic acid salt]",–,–
> 10000,> 10000,"Cc1cc(NC(=O)N2CC3(CCN(Cc4cccc(Oc5ccc(Cl)cc5)c4)CC3)C2)n[nH]1 [Example 78, 7-(3-(4-chlorophenoxy)benzyl)-N-(5-methyl-1H-pyrazol-3-yl)-2,7-diazaspiro[3.5]nonane-2-carboxamide, trifluoroacetic acid salt]",–,–
3000,1600,"O=C(Nc1ccc(N2CCCCC2)nc1)N1CC2(CCN(Cc3cccc(Oc4ccc(Cl)cc4)c3)CC2)C1 [Example 81, 7-(3-(4-chlorophenoxy)benzyl)-N-(6-(piperidin-1-yl)pyridin-3-yl)-2,7-diazaspiro[3.5]nonane-2-carboxamide, trifluoroacetic acid salt]",–,–
